Measurements as given in patent publication US20260102501A1, “ANTI-CANCER NUCLEAR HORMONE RECEPTOR-TARGETING COMPOUNDS” (Nuvation Bio Inc., priority 2022, published 2026).
Substitutions are numbered along the chain they refer to. Counter-ions that a name gives are not always drawn. Like-named read-outs stand apart in the source and are kept apart here.

How the values were obtained:
[1] = test system: LNCap cells; assay: Cell viability assay (CellTiterGlo); type: cell-based; conditions: Homo sapiens, 144 h
[2] = test system: T47D cells; assay: Cell viability assay (CellTiterGlo); type: cell-based; conditions: Homo sapiens, 144 h
[3] = target: T1, Progesterone PR-B receptors from human breast carcinoma T47D cells (Homo sapiens, UniProt P06401); assay: PR binding assay ([3H] Progesterone displacement)
T1 sequence (P06401 1-933): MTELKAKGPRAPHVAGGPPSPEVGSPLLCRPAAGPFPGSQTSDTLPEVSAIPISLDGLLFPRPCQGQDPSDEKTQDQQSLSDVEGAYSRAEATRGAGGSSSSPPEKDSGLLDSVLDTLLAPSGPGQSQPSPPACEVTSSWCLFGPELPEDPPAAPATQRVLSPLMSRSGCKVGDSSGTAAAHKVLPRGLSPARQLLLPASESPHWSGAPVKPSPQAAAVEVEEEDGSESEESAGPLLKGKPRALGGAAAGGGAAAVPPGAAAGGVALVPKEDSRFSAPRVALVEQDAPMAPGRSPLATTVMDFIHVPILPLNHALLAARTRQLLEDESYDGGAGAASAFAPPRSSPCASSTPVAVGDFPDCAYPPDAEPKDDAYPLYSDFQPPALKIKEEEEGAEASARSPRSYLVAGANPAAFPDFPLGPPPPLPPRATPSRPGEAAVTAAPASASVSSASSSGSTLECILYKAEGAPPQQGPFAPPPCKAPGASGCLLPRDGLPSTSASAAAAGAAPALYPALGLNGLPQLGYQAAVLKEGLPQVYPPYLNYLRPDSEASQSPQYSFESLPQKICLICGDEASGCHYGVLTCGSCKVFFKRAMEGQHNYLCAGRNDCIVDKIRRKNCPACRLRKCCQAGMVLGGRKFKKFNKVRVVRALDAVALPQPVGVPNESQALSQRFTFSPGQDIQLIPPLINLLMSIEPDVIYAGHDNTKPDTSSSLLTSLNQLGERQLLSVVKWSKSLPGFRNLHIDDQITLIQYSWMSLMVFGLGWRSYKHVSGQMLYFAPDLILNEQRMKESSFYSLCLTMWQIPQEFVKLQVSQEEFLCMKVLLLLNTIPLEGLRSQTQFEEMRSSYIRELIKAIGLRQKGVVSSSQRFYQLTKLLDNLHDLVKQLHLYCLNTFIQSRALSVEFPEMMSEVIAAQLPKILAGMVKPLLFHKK

[4] = target: T2, ligand binding domain of the glucocorticoid receptor (HEK293 cells stably expressing) (Homo sapiens, UniProt P04150); assay: GR antagonism assay (luciferase reporter)
T2 sequence (P04150 524-758 limits assumed): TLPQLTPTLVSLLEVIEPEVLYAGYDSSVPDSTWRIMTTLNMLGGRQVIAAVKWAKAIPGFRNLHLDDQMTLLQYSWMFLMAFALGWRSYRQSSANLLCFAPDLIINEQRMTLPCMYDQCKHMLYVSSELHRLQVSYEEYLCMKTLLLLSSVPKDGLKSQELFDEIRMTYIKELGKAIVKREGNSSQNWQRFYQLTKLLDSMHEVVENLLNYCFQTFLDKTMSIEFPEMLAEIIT
Method: HEK293 cells stably expressing the ligand binding domain of the glucocorticoid receptor were seeded at a density of 40000 cells/well in the assay plate. The assay plate was then incubated at 37° C., 5% CO2 for 30 minutes. Dexamethasone was added to the assay plate at 1.5 nM final concentration and the assay plate incubated at 37° C., 5% CO2 for 20 h. After the incubation period, Dual-glo luciferase reagent was added to the assay plate and mixed at room temperature for 20 minutes on an orbital shaker, before reading out on the En Vision plate reader. 50 μL of Stop & Glo reagent was added to assay plate, mixed at room temperature for 20 minutes, and read on the Envision plate reader.

[5] = target: T3, full-length androgen receptor (HEK293 cells stably expressing) (Homo sapiens, UniProt P10275); assay: AR antagonism assay (luciferase reporter)
T3 sequence (P10275 1-920): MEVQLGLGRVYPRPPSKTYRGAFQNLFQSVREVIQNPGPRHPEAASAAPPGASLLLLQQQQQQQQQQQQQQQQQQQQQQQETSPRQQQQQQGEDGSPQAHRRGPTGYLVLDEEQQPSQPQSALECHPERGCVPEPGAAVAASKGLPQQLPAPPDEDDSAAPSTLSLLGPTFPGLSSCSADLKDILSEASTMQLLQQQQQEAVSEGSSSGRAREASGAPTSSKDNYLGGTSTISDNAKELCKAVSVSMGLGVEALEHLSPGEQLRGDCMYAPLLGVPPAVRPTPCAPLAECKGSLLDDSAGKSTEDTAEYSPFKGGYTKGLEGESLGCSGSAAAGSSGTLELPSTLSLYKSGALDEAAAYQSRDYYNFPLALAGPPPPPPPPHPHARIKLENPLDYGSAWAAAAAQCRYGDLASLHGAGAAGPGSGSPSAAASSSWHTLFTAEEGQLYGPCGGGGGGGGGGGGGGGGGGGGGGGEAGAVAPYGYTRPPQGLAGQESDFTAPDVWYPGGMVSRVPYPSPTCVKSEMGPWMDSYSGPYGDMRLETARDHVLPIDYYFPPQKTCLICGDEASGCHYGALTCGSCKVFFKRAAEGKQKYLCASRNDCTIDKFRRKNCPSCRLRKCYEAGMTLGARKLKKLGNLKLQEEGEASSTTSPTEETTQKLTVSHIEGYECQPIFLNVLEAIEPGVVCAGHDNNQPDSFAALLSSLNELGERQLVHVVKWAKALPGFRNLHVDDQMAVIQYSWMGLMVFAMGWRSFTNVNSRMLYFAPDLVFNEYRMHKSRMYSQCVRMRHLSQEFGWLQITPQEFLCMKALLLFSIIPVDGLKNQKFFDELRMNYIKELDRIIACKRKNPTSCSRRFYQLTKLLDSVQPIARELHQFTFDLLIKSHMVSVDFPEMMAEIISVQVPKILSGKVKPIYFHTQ
Method: AR antagonism assay: To evaluate AR antagonist activity, test compound was added to the assay plate (top dose 10 μM, 3 fold serial dilution, 10 point dose response). HEK293 cells stably expressing the full-length androgen receptor were seeded at a density of 20000 cells/well in the assay plate. The assay plate was then incubated at room temperature for 10 minutes and at 37° C. 5% CO2 for 20 minutes. Testosterone was added to the assay plate at 1 nM final concentration and the assay plate incubated at 37° C., 5% CO2 for 20 h. […] Steady-glo was added to the assay plate and mixed at room temperature for 20 minutes on an orbital shaker, before reading out on the En Vision plate reader.

[6] = target: T4, AR (cytosol from LnCaP cells) (Homo sapiens, UniProt P10275, T878A); assay: AR binding assay (3H-R1881 displacement)
T4 sequence (P10275 1-920 T878A): T3 sequence (P10275 1-920) with T878A
Method: The plate was then centrifuged at 3000 rpm for 30 minutes at 4° C.

[7] = test system: IEC6 cells; assay: Cell viability assay (CellTiterGlo); conditions: Rattus norvegicus, IEC-6, 144 h, read-out: IEC-6 (IC50, nM)
Method: Cell viability assay: LNCap, 22Rv1, MCF7, MDAMB361, T47D, and IEC6 cells were seeded at a density of 500-2000 cells/well in 96 well plates, and a ‘T0’ (timepoint 0) was included along with the assay plate. The plates were then incubated at 37° C., 5% CO2 in a cell culture incubator overnight. On the next day, the ‘T0’ plate was assayed using CellTiterGlo (Promega, Inc) according to the manufacturer's instructions. The appropriate compounds were diluted in DMSO and added to the assay plate (final DMSO concentration of 0.1-0.2%) on the next day. The assay plates were incubated for 6 days at 37° C., 5% CO2. After the incubation period, the plates were assayed using CellTiterGlo (Promega, Inc) according to the manufacturer's instructions and luminescence was read on the En Vision plate reader. […] GraphPadPrism was used to analyze the data and determine GI50/IC50 values.

[8] = test system: 22Rv1 cells; assay: Cell viability assay (CellTiterGlo); conditions: Homo sapiens, 22Rv1, 144 h, read-out: 22RV1 (IC50, nM)
[9] = 6 days incubation, CellTiterGlo, read-out: LNCap (IC50)

SMILES	IC50 ([1]; read-out: LNCap (IC50)) [nM]	IC50 ([2]; read-out: T47D (IC50)) [nM]	IC50 [3] [nM]	IC50 ([1]; read-out: LNCap (IC50, nM)) [nM]	IC50 [4] [nM]	IC50 ([2]; read-out: T47D (IC50, nM)) [nM]	IC50 [5] [nM]	IC50 [6] [nM]	IC50 [7] [nM]	IC50 [1, 9] [nM]	IC50 ([2]; 6 days incubation, CellTiterGlo, read-out: T47D (IC50)) [nM]	IC50 [8] [nM]
CC[C@@]1(OC(=O)N2CCN(CCCCCCN(C)c3ccc([C@H]4C[C@@]5(C)[C@@H](CC[C@]5(OC(C)=O)C(C)=O)[C@@H]5CCC6=CC(=O)CCC6=C54)cc3)CC2)C(=O)OCc2c1cc1n(c2=O)Cc2cc3cc(OC)ccc3nc2-1 [Compound 24, (S)-4-Ethyl-9-methoxy-3,14-dioxo-3,4,12,14-tetrahydro-1H-pyrano[3′,4′:6,7]indolizino[1,2-b]quinolin-4-yl 4-(6-((4-((8S,11R,13S,14S,17R)-17-acetoxy-17-acetyl-13-methyl-3-oxo-2,3,6,7,8,11,12,13,14,15,16,17-dodecahydro-1H-cyclopenta[a]phenanthren-11-yl)phenyl)(methyl)amino)hexyl)piperazine-1-carboxylate Formate]	101 to 1000	101 to 1000	< 10	–	–	–	–	–	–	–	–	–
CC[C@@]1(O)C(=O)OCc2c1cc1n(c2=O)Cc2cc3c(CN(C)C)c(OC(=O)N4C[C@H](C)N(C(=O)[C@H](CCCNC(N)=O)NC(=O)[C@@H](NCCCCCCN(C)c5ccc([C@H]6C[C@@]7(C)[C@@H](CC[C@]7(OC(C)=O)C(C)=O)[C@@H]7CCC8=CC(=O)CCC8=C76)cc5)C(C)C)C[C@H]4C)ccc3nc2-1 [Compound 35]	–	–	< 10	> 1000	10 to 100	101 to 1000	> 1000	10 to 100	> 1000	–	–	–
CC[C@@]1(O)C(=O)OCc2c1cc1n(c2=O)Cc2c-1nc1cc(F)c(C)c3c1c2[C@@H](NC(=O)CN1CCN(CCCCCCN(C)c2ccc([C@H]4C[C@@]5(C)[C@@H](CC[C@]5(OC(C)=O)C(C)=O)[C@@H]5CCC6=CC(=O)CCC6=C54)cc2)CC1)CC3 [Compound 37, (8S,11R,13S,14S,17R)-17-acetyl-11-(4-((6-(4-(2-(((1S,9S)-9-ethyl-5-fluoro-9-hydroxy-4-methyl-10,13-dioxo-2,3,9,10,13,15-hexahydro-1H,12H-benzo[de]pyrano[3′,4′:6,7]indolizino[1,2-b]quinolin-1-yl)amino)-2-oxoethyl)piperazin-1-yl)hexyl)(methyl)amino)phenyl)-13-methyl-3-oxo-2,3,6,7,8,11,12,13,14,15,16,17-dodecahydro-1H-cyclopenta[a]phenanthren-17-yl acetate]	–	–	< 10	–	10 to 100	–	101 to 1000	< 10	101 to 1000	101 to 1000	10 to 100	–
CC[C@@]1(O)C(=O)OCc2c1cc1n(c2=O)Cc2c-1nc1cc(F)c(C)c3c1c2[C@@H](NC(=O)COC(=O)N1CCN(CCCCCCN(C)c2ccc([C@H]4C[C@@]5(C)[C@@H](CC[C@]5(OC(C)=O)C(C)=O)[C@@H]5CCC6=CC(=O)CCC6=C54)cc2)CC1)CC3 [Compound 42, 2-(((1S,9S)-9-ethyl-5-fluoro-9-hydroxy-4-methyl-10,13-dioxo-2,3,9,10,13,15-hexahydro-1H,12H-benzo[de]pyrano[3′,4′:6,7]indolizino[1,2-b]quinolin-1-yl)amino)-2-oxoethyl 4-(6-((4-((8S,11R,13S,14S,17R)-17-acetoxy-17-acetyl-13-methyl-3-oxo-2,3,6,7,8,11,12,13,14,15,16,17-dodecahydro-1H-cyclopenta[a]phenanthren-11-yl)phenyl)(methyl)amino)hexyl)piperazine-1-carboxylate]	–	–	< 10	–	10 to 100	–	101 to 1000	10 to 100	> 1000	101 to 1000	–	101 to 1000
CC[C@@]1(O)C(=O)OCc2c1cc1n(c2=O)Cc2cc3c(CN4CCN(CCCCCCC5CCN(c6ccc(C(=O)N[C@H]7CC[C@H](N(C)c8ccc(C#N)c(Cl)c8)CC7)nn6)CC5)CC4)c(O)ccc3nc2-1 [Compound 56, N-((1r,4r)-4-((3-chloro-4-cyanophenyl)(methyl)amino)cyclohexyl)-6-(4-(6-(4-(((S)-4-ethyl-4,9-dihydroxy-3,14-dioxo-3,4,12,14-tetrahydro-1H-pyrano[3′,4′:6,7]indolizino[1,2-b]quinolin-10-yl)methyl)piperazin-1-yl)hexyl)piperidin-1-yl)pyridazine-3-carboxamide]	–	–	10 to 100	–	–	–	101 to 1000	101 to 1000	101 to 1000	10 to 100	–	10 to 100
